Tested on: KRAS-mutant PDC tumor spheroid with HUVEC/MSC, viability
Test: Anticancer human tumor 327498-153-R-J2-PDC patient-derived uterine carcinosarcoma cell line growth inhibition [KRAS2]
Conditions: for IC50: curve of first compound; for viability, T/C: stronger effect = lower value
How it was run: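 Combination screen of spheroid viability in tumor-cell co-cultures with endothelial (HUVEC) and mesenchymal stem cell stroma. Each agent was tested in half-log dilutions, topping at clinical Cmax or at 10 microM without a known Cmax.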

[1] = second compound 0.1 µM, first compound 0.0316 µM
[2] = second compound 0.1 µM, first compound 0.1 µM
[3] = second compound 0.1 µM, first compound 0.316 µM
[4] = second compound 0.1 µM, first compound 1 µM
[5] = second compound 0.1 µM, first compound 3.16 µM
[6] = second compound 0.1 µM, first compound 10 µM
[7] = second compound 0.316 µM, first compound 0.0316 µM
[8] = second compound 0.316 µM, first compound 0.1 µM
[9] = second compound 0.316 µM, first compound 0.316 µM
[10] = second compound 0.316 µM, first compound 1 µM
[11] = second compound 0.316 µM, first compound 3.16 µM
[12] = second compound 0.316 µM, first compound 10 µM
[13] = second compound 1 µM, first compound 0.0316 µM
[14] = second compound 1 µM, first compound 0.1 µM
[15] = second compound 1 µM, first compound 0.316 µM
[16] = second compound 1 µM, first compound 1 µM
[17] = second compound 1 µM, first compound 3.16 µM
[18] = second compound 1 µM, first compound 10 µM
[19] = second compound 3.16 µM, first compound 0.0316 µM
[20] = second compound 3.16 µM, first compound 0.1 µM
[21] = second compound 3.16 µM, first compound 0.316 µM
[22] = second compound 3.16 µM, first compound 1 µM
[23] = second compound 3.16 µM, first compound 3.16 µM
[24] = second compound 3.16 µM, first compound 10 µM
[25] = second compound 10 µM, first compound 0.0316 µM
[26] = second compound 10 µM, first compound 0.1 µM
[27] = second compound 10 µM, first compound 0.316 µM
[28] = second compound 10 µM, first compound 1 µM
[29] = second compound 10 µM, first compound 3.16 µM
[30] = second compound 10 µM, first compound 10 µM
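Also: spheroids exposed to agents for seven days before reading.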
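For viability, T/C in this document: 100% = DMSO vehicle wells so lower means fewer viable cells.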

Structure (SMILES) | IC50 (second compound 0.1 µM) [nM] | IC50 (second compound 0.316 µM) [nM] | IC50 (second compound 1 µM) [nM] | IC50 (second compound 3.16 µM) [nM] | IC50 (second compound 10 µM) [nM] | viability, T/C [1] [%] | viability, T/C [2] [%] | viability, T/C [3] [%] | viability, T/C [4] [%] | viability, T/C [5] [%] | viability, T/C [6] [%] | viability, T/C [7] [%] | viability, T/C [8] [%] | viability, T/C [9] [%] | viability, T/C [10] [%] | viability, T/C [11] [%] | viability, T/C [12] [%] | viability, T/C [13] [%] | viability, T/C [14] [%] | viability, T/C [15] [%] | also measured
COC(=O)c1ccc2c(C(=Nc3ccc(N(C)C(=O)CN4CCN(C)CC4)cc3)c3ccccc3)c(O)[nH]c2c1 + COc1cc2nc(C)nc(NC(C)c3cc(N)cc(C(F)(F)F)c3)c2cc1OC1CCOC1 | 2160 | 490 | 648 | 585 | 280 | 94.6 | 77.2 | 72.2 | 83.7 | 33.9 | 34.5 | 73 | 65.1 | 57 | 40.4 | 29 | 24.8 | 62 | 59 | 64.3 | viability, T/C [16]: 42.9%; viability, T/C [17]: 25.5%; viability, T/C [18]: 20.4%; viability, T/C [19]: 69.5%; viability, T/C [20]: 69.6%; viability, T/C [21]: 60.9%; viability, T/C [22]: 39.3%; viability, T/C [23]: 19.9%; viability, T/C [24]: 0.17%; viability, T/C [25]: 54.2%; viability, T/C [26]: 58.9%; viability, T/C [27]: 47.1%; viability, T/C [28]: 27.2%; viability, T/C [29]: 2.2%; viability, T/C [30]: 0.22%
O=C(c1cc(Cc2n[nH]c(=O)c3ccccc23)ccc1F)N1CCN(C(=O)C2CC2)CC1 + COc1cc2nc(C)nc(NC(C)c3cc(N)cc(C(F)(F)F)c3)c2cc1OC1CCOC1 | 2220 | 1750 | 2470 | 1740 | 719 | 84.2 | 107 | 89.7 | 78.7 | 37.3 | 20.7 | 77.2 | 79.2 | 81.9 | 68.5 | 30.3 | 15.9 | 109 | 104 | 102 | viability, T/C [16]: 94.6%; viability, T/C [17]: 37.8%; viability, T/C [18]: 18.7%; viability, T/C [19]: 78.4%; viability, T/C [20]: 77.3%; viability, T/C [21]: 76.1%; viability, T/C [22]: 66.3%; viability, T/C [23]: 32.5%; viability, T/C [24]: 18.5%; viability, T/C [25]: 99.8%; viability, T/C [26]: 61%; viability, T/C [27]: 63%; viability, T/C [28]: 56.9%; viability, T/C [29]: 25.3%; viability, T/C [30]: 14.7%
